Results taken from publication PMC9304723 (Heliyon, 2022).

Legend:
OATP2B1 [1] = target: T1, OATP2B1 (Homo sapiens, UniProt O94956); conditions: read-out: IC50, reduction of influx of substrates of OATP2B1; cited from earlier work
T1 sequence (O94956 1-709): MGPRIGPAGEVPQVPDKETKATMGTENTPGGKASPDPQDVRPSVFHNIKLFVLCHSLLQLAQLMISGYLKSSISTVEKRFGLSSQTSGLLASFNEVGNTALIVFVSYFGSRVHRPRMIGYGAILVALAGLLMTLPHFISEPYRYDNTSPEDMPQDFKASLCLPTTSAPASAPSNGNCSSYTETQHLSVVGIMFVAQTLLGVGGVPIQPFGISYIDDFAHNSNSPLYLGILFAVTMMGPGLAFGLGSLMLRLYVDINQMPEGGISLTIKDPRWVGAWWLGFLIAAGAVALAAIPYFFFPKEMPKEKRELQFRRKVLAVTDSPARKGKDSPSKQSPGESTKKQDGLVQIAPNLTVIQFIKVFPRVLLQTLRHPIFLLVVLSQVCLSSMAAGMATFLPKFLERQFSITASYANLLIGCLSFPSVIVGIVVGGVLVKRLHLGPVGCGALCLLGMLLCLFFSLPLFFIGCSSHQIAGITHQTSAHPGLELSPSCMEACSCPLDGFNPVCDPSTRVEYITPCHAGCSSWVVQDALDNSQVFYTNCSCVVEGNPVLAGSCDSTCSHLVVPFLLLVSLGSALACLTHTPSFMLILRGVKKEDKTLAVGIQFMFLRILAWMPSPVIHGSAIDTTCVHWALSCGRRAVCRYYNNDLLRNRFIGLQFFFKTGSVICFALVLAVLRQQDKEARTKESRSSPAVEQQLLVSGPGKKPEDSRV

P-glycoprotein (Pgp) = P-glycoprotein (Pgp) (Homo sapiens, UniProt P08183); assay: Caco-2 transport of CA with Pgp inhibitor GF120918; format: in vitro ADME; conditions: 2 μM GF120918
OATP2B1 [2] = target: T1, OATP2B1; assay: Caco-2 transport of CA with OATP2B1 inhibitor baicalin; format: in vitro ADME; conditions: 6 μM baicalin

P-glycoprotein (Pgp), sequence (P08183 whole entry): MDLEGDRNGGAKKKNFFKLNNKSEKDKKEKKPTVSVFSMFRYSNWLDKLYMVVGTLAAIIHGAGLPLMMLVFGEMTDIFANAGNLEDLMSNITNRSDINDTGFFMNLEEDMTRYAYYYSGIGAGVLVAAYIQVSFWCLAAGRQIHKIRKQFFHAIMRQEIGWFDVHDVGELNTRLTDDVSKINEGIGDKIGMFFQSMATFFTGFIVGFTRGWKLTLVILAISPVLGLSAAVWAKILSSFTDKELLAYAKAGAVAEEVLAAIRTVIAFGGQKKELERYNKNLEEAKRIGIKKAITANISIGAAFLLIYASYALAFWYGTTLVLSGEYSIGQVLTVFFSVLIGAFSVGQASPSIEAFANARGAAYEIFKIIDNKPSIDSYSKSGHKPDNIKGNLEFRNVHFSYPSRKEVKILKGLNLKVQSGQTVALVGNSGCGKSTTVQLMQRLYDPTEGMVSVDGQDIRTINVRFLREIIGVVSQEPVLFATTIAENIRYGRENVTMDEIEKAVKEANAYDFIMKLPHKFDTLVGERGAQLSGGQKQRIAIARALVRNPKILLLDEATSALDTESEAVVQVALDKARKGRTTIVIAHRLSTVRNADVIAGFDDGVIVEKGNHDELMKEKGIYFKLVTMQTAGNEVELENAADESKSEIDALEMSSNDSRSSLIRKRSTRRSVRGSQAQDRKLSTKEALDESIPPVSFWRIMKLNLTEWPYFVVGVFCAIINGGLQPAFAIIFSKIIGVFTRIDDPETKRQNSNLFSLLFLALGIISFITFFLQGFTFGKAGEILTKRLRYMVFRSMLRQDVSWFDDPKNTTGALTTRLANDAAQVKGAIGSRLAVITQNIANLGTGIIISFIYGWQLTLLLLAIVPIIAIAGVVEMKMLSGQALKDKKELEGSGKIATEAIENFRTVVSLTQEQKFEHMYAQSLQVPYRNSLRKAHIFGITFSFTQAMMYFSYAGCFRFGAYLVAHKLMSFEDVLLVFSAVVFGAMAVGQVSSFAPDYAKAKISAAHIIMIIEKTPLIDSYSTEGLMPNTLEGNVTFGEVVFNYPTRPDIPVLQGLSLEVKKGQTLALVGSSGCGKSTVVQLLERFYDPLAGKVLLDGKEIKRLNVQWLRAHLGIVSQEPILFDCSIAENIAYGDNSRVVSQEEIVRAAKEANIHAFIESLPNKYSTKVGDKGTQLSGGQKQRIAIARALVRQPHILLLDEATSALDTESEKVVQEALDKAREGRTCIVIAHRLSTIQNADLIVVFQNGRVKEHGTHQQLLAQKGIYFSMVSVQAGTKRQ

Compound	IC50 (OATP2B1 [1]) [µM]	Decrease of Papp B–A after GF120918 treatment (P-glycoprotein (Pgp)) [%]	Decrease of Papp B–A after baicalin treatment (OATP2B1 [2]) [%]
O=C(O)[C@H]1O[C@@H](Oc2cc3oc(-c4ccccc4)cc(=O)c3c(O)c2O)[C@H](O)[C@@H](O)[C@@H]1O [baicalin]	5.6 ± 3.2		
Chicoric acid [CA]		62	63
